One experiment concerns the target human NAMPT (Homo sapiens, UniProt P43490). As to the kind of experiment: Human recombinant enzyme assay (NMN fluorescence biochemical assay, activation of NAMPT). The gist of the method:
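NMN production is detected fluorometrically (Ex 355/Em 460 nm) 40 min after acetophenone, KOH and formic acid derivatization. Reactions ran 60 min at ambient temperature: 6 nM human NAMPT, nicotinamide 150 μM, PRPP 20 μM, ATP 2.5 mM, buffered at pH 7.2 with 50 mM HEPES plus DTT, CHAPS, NaCl and 100 mM MgCl2.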

The target in a further experiment is T1, endogenous NAMPT (Homo sapiens, UniProt P43490).
T1 construct: stimulate the endogenous NAMPT in a native cellular environment; endogenous in cells; host or cells: SH-SY5Y neuroblastoma cells
T1 sequence (P43490 whole entry): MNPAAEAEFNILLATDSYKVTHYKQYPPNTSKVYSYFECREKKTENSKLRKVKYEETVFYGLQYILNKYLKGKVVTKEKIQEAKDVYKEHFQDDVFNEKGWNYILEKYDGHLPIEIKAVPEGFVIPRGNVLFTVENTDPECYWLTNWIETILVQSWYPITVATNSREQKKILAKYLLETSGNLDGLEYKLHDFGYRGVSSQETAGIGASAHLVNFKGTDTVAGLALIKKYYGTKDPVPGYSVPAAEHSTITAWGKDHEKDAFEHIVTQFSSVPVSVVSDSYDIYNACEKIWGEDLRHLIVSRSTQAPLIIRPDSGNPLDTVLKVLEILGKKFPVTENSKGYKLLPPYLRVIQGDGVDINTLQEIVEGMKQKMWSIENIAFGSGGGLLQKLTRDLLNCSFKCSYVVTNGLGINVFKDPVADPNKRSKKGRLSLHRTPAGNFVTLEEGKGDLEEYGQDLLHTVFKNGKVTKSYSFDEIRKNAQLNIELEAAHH
The experiment can be described thus: Cellular NAD+ modulation assay in neuroblastoma SH-SY5Y cells. The format is cell-based. As to the method:
The compounds described herein were also assayed for their ability to stimulate the endogenous NAMPT in a native cellular environment in the cellular NAD+ modulation assay, which measures the ability of the compound to modulate cellular NAD levels. Increased levels of NAD are expected by compounds that permeate the cells and activate the catalytic activity of the endogenous NAMPT.
Neuroblastoma SH-SY5Y cells were grown in 1:1 mixture of Eagle's Minimum Essential Medium and F12 Medium, along with 10% fetal bovine serum, in a humidified incubator with an atmosphere of 95% air and 5% CO2 at 37° C. The assays were initiated by plating 20 μL of SH-SY5Y cells in culture medium with 0.1% fetal bovine serum, at a density of 5000 cells per well to a 384-well Corning™ BioCoat™ Poly-D-Lysine Multiwell Plates. The plates were incubated in the 37° C. incubators for a period of 5 hours. Compounds in DMSO were added to the plates in a volume of 120 nL using the Labcyte Echo Liquid Handlers. […] The plates are then incubated for 40 hours. 30 μL of a readout-solution containing 0.2 U/mL Diaphorase enzyme, 40 uM resazurin, 10 uM FMN, 0.8 U/mL Alcohol dehydrogenase, 3% ethanol, 0.4 mg/mL bovine serum albumin, 0.2% Triton X-100 in 100 mM Tris-HCl, 30 mM EDTA, pH 8.4. The plates were read for fluorescence (Excitation/Emission=540 nm/590 nm) using an EnVision plate reader after 60 mins of incubation at ambient temperature.

Where [1] appears, read: Table A, human recombinant NAMPT, NMN formation, 60 min.
The mark [2] stands for this setting: Table B, SH-SY5Y cells, cellular NAD levels, doxorubicin, 40 hours.
Where [3] appears, read: Table A, human recombinant NAMPT, NMN formation, 60 min, read-out: EC50 Human.
The mark [4] stands for this setting: Table B, SH-SY5Y cells, cellular NAD levels, doxorubicin, 40 hours, read-out: EC50.

Like-named read-outs stand apart in the source and are kept apart here. Some results are limits rather than exact numbers.

Chain of human NAMPT (P43490 whole entry): as above

Take `N#Cc1ccccc1C(=O)NC1CC2(CC(NC(=O)NCc3ccc(Cl)cc3)C2)C1` (centres unmarked) [Compound 212, N-(6-(3-(4-chlorobenzyl)ureido)spiro[3.3]heptan-2-yl)-2-cyanobenzamide]: the values for the EC50 at human NAMPT and on endogenous NAMPT were 6 µM and 0.1 µM, respectively. Further, the “AC1.4 Human” value at human NAMPT (setting [1]) stood at 7.2 µM. This compound also registered an AC0.3 on endogenous NAMPT (setting [2]) of 0.3 µM.

Take `Cc1ccc(C(=O)N2CC3(CC(NC(=O)NCc4ccc(=O)[nH]c4)C3)C2)cc1` [Compound 214, 1-(2-(4-methylbenzoyl)-2-azaspiro[3.3]heptan-6-yl)-3-((6-oxo-1,6-dihydropyridin-3-yl)methyl)urea]: the “AC1.4 Human” value on human NAMPT (setting [1]) came out at 10.5 µM. Moreover, the EC50 (in general, the midpoint of the concentration-response curve) at human NAMPT (setting [3]) amounted to 36.7 µM. Moreover, at endogenous NAMPT (setting [2]), the AC0.3 is above 20.1 µM.

On to `COc1ccc(CNC(=O)N[C@H]2C[C@]3(C2)C[C@H](C(=O)N2CCCc4ccccc42)C3)cc1` (some centres unmarked) [Compound 229, 1-(4-methoxy-benzyl)-3-(6-(1,2,3,4-tetrahydro-quinoline-1-carbonyl)spiro[3.3]heptan-2-yl)urea], for which the EC50 at human NAMPT (setting [3]) came out at 1.2 µM; on endogenous NAMPT (setting [4]) it was 0.2 µM.

Take `Cc1ccc(C(=O)NC[C@H]2C[C@]3(C2)C[C@@H](NC(=O)NCc2ccc(Cl)cc2)C3)cn1` (some centres unmarked) [Compound 249, N-((6-(3-(4-chlorobenzyl)ureido)spiro[3.3]heptan-2-yl)methyl)-6-methyl-nicotinamide]: the values for the EC50 at human NAMPT (setting [3]) and on endogenous NAMPT (setting [4]) were 2.7 µM and 0.9 µM, respectively.

In the case of `O=C(NCCCCC(=O)N1CCCc2ccccc21)NCc1ccc(Cl)cc1` [Compound 256, 1-(4-chlorobenzyl)-3-(5-(3,4-dihydroquinolin-1(2H)-yl)-5-oxopentyl)urea], at human NAMPT (setting [1]), the “AC1.4 Human” value was 1.0 µM. For the same compound, the EC50 is 2 µM at human NAMPT (setting [3]) and 0.3 µM on endogenous NAMPT (setting [4]). This compound had an AC0.3 on endogenous NAMPT (setting [2]) of 0.3 µM.

Consider `CN(C(=O)CCCCCNC(=O)NCc1ccc(Cl)cc1)c1ccccc1` [Compound 268, 6-(3-(4-chlorobenzyl)ureido)-N-methyl-N-phenylhexanamide], for which, at human NAMPT (setting [1]), the “AC1.4 Human” value worked out at 0.3 µM. Besides, the values for the EC50 on human NAMPT (setting [3]) and on endogenous NAMPT (setting [4]) were 0.5 µM and 0.1 µM, respectively. Also, the AC0.3 at endogenous NAMPT (setting [2]) amounted to 0.1 µM.

`CN(C(=O)CCCCCNC(=O)NCc1cn[nH]c1)c1ccccc1F` [Compound 287, 6-(3-((1H-pyrazol-4-yl)methyl)ureido)-N-(2-fluorophenyl)-N-methylhexanamide]: on human NAMPT (setting [1]), the “AC1.4 Human” value stood at 0.1 µM. Moreover, the EC50 on human NAMPT (setting [3]) was found to be 4.4 µM; at endogenous NAMPT (setting [4]), 1 µM. On endogenous NAMPT (setting [2]), this compound displayed an AC0.3 of 0.3 µM.

`CN(C(=O)CCCCCNC(=O)NCc1cnco1)c1ccccc1F` [Compound 288, N-(2-fluorophenyl)-N-methyl-6-(3-(oxazol-5-ylmethyl)ureido)hexanamide]: the “AC1.4 Human” value on human NAMPT (setting [1]) worked out at 0.3 µM. Further, the EC50 was 3.7 µM on human NAMPT (setting [3]) and 0.8 µM at endogenous NAMPT (setting [4]). The AC0.3 at endogenous NAMPT (setting [2]) was 0.3 µM.

For the compound `[2H]C([2H])(CCCC1CCN(C(=O)c2ccccc2)CC1)NC(=O)NCc1cnco1` [Compound 293, 1-(4-(1-benzoylpiperidin-4-yl)butyl-1,1-d2)-3-(oxazol-5-ylmethyl)urea], the “AC1.4 Human” value at human NAMPT (setting [1]) amounted to 0.1 µM. Moreover, the EC50 on human NAMPT (setting [3]) came to 1.5 µM; at endogenous NAMPT (setting [4]), 0.3 µM. The AC0.3 at endogenous NAMPT (setting [2]) is 0.3 µM.

Consider `COc1ccc(CNC(=O)NCCCCC2CCN(C(=O)c3ccccc3C)CC2)cc1` [Compound 322, 1-(4-methoxybenzyl)-3-(4-(1-(2-methylbenzoyl)piperidin-4-yl)butyl)urea], for which the “AC1.4 Human” value on human NAMPT (setting [1]) was found to be 0.1 µM. The EC50 on human NAMPT (setting [3]) was found to be 2.3 µM; on endogenous NAMPT (setting [4]) it was 0.3 µM. The AC0.3 at endogenous NAMPT (setting [2]) turned out to be 0.2 µM.

Consider `O=C(NCc1ccc(Cl)cc1)NC1CC2(CC(Cc3ccncc3)C2)C1` (centres unmarked) [Compound 329, 1-(4-chlorobenzyl)-3-(6-(pyridin-4-ylmethyl)spiro[3.3]heptan-2-yl)urea], for which, at human NAMPT (setting [1]), the “AC1.4 Human” value was determined as 62.5 µM. The figures for the EC50 at human NAMPT (setting [3]) and on endogenous NAMPT (setting [4]) were above 62.5 µM and 0.1 µM, respectively. The AC0.3 at endogenous NAMPT (setting [2]) worked out at 0.1 µM.

With `COc1ccc(CNC(=O)NC2CC3(CC(Cc4ccncc4)C3)C2)cc1` (centres unmarked) [Compound 330, 1-(4-methoxybenzyl)-3-(6-(pyridin-4-ylmethyl)spiro[3.3]heptan-2-yl)urea], the “AC1.4 Human” value at human NAMPT (setting [1]) was determined as 0.1 µM. Also, the EC50 at human NAMPT (setting [3]) is 3.9 µM; on endogenous NAMPT (setting [4]), 8.1 µM. The same compound registered an AC0.3 at endogenous NAMPT (setting [2]) of 0.5 µM.

For `Cc1ncccc1CC1CC2(C1)CC(NC(=O)NCc1ccc(Cl)cc1)C2` (centres unmarked) [Compound 346, 1-(4-chlorobenzyl)-3-(6-((2-methylpyridin-3-yl)methyl)spiro[3.3]heptan-2-yl)urea], the “AC1.4 Human” value at human NAMPT (setting [1]) stood at 62.5 µM. Moreover, the EC50 was above 62.5 µM at human NAMPT (setting [3]) and 0.1 µM on endogenous NAMPT (setting [4]). Also, on endogenous NAMPT (setting [2]), the AC0.3 was 0.1 µM.

For the origin of these results see US20230348369A1 (Cytokinetics, Inc., priority 2020, published 2023).
